Assays:
[1] = Inhibition of chymotrypsin like activity of yeast 20S proteasome beta 5 subunit after 30 mins by fluorescence assay; design: species or system Saccharomyces cerevisiae
[2] = system: HCT-116; assay: Cytotoxicity against human HCT116 cells after 72 hrs by MTS/PMS assay; assay type: functional, cell-based; conditions: HCT-116, 72 h

CCCC[C@H](O)[C@@]12NC(=O)[C@H](CCCl)[C@]1(C)OC2=O [SALINOSPORAMIDE X6]
IC50 [1]: 132 nM | IC50 [2]: 1110 nM

CC(C)[C@H](O)[C@@]12NC(=O)[C@H](CCCl)[C@]1(C)OC2=O [ANTIPROTEALIDE]
IC50 [1]: 101 nM | IC50 [2]: 777 nM

C[C@@]12OC(=O)[C@]1([C@@H](O)[C@@H]1C=CCC1)NC(=O)[C@@H]2CCCl [SALINOSPORAMIDE X7]
IC50 [1]: 2.2 nM | IC50 [2]: 5.9 nM

C[C@@]12OC(=O)[C@]1([C@@H](O)C1CCC1)NC(=O)[C@@H]2CCCl [SALINOSPORAMIDE X3]
IC50 [1]: 93.4 nM | IC50 [2]: 188 nM

C[C@@]12OC(=O)[C@]1([C@@H](O)[C@@H]1C=CCCC1)NC(=O)[C@@H]2CCCl [MARIZOMIB]
IC50 [1]: 1.9 nM | IC50 [2]: 16 nM

CCC[C@H](O)[C@@]12NC(=O)[C@H](CCCl)[C@]1(C)OC2=O [SALINOSPORAMIDE X5]
IC50 [1]: 245 nM | IC50 [2]: 1090 nM

C[C@@]12OC(=O)[C@]1([C@@H](O)c1ccccc1)NC(=O)[C@@H]2CCCl [SALINOSPORAMIDE X4]
IC50 [1]: 1030 nM | IC50 [2]: 6880 nM

C[C@@]12OC(=O)[C@]1([C@@H](O)C1CCCCC1)NC(=O)[C@@H]2CCCl
IC50 [1]: 27.5 nM | IC50 [2]: 176 nM

C[C@@]12OC(=O)[C@]1([C@@H](O)C1CCCC1)NC(=O)[C@@H]2CCCl
IC50 [1]: 9.3 nM | IC50 [2]: 54 nM
